Experimental data as given in PubChem BioAssay (NCI).
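Assay format: 96-well plates, 48-hour exposure. GI50: concentration for 50% inhibition of growth. Definition used: TGI = concentration required for complete inhibition of growth.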

What was measured:
Experiment in all cases: DTP human tumour cell line panel, 48 h
[1] = test system: U251 CNS
[2] = test system: SNB-19 CNS
[3] = test system: CAKI-1 renal
[4] = test system: KM12 colon
[5] = test system: SR leukemia
[6] = test system: LOX IMVI melanoma
[7] = test system: OVCAR-5 ovarian
[8] = test system: NCI-H23 lung
[9] = test system: UACC-257 melanoma
[10] = test system: HCT-15 colon

Row | Structure (SMILES) | TGI [1] [µM] | TGI [2] [µM] | TGI [3] [µM] | TGI [4] [µM] | TGI [5] [µM] | TGI [6] [µM] | TGI [7] [µM] | TGI [8] [µM] | TGI [9] [µM] | TGI [10] [µM] | GI50 [1] [µM] | GI50 [2] [µM] | GI50 [3] [µM] | GI50 [4] [µM] | GI50 [5] [µM] | GI50 [6] [µM] | GI50 [7] [µM] | GI50 [8] [µM] | GI50 [9] [µM] | GI50 [10] [µM]
1 | COc1ccccc1NC(=O)C1=C(C)NC(C)=C(C(=O)Nc2ccccc2OC)C1/C=C/c1ccccc1 | > 100 | > 100 | > 100 | > 100 | > 100 | > 100 | > 100 | > 100 | > 100 | > 100 | – | – | – | – | – | – | – | – | – | –
2 | CCOC(=O)C(Cc1ccc(N(CCCl)CCCl)cc1)NC(=O)C(Cc1ccccc1)NC=O (centres undefined) | 0.499 | 0.624 | 0.264 | 0.638 | 0.824 | 0.301 | 0.548 | 0.399 | 0.54 | 0.602 | – | – | – | – | – | – | – | – | – | –
3 | CN(C)CC1CC/C(=C\c2ccc3c(c2)OCO3)C1=O (centres undefined) | 36.1 | 36 | 23.1 | 18.9 | 11 | 3.72 | 39.3 | 24.4 | 20.1 | 15 | – | – | – | – | – | – | – | – | – | –
4 | CC/C(Cc1ccccc1)=C(\c1ccc(OCCN2CCCC2)cc1)c1ccc(OC(=O)NCc2ccccc2)cc1 | 3.17 | 4.58 | 3.02 | 3.81 | 4.07 | 3.1 | 4.65 | 13.7 | 3.81 | 3.07 | 1.77 | 2.15 | 1.63 | 1.92 | 1.57 | 1.71 | 1.93 | 3.43 | 1.91 | 1.58
5 | Nc1nc2c(C(=O)NCc3cccs3)nnn2c2cccc(Cl)c12 | > 100 | > 100 | > 100 | > 100 | > 100 | > 100 | > 100 | > 100 | > 100 | > 100 | – | – | – | – | – | – | – | – | – | –
6 | CC1OC(=O)C(O)=C1O (centres undefined) | > 100 | > 100 | > 100 | > 100 | > 100 | > 100 | > 100 | > 100 | > 100 | > 100 | – | – | – | – | – | – | – | – | – | –
7 | C#Cc1cccc(Nc2nc(Cl)nc3cc(NC(=O)CCl)ccc23)c1 | 1.14 | 4.59 | 5.17 | 4.22 | 1.68 | 0.809 | 4.45 | 3.77 | 5.82 | 2.03 | 0.526 | 1.68 | 1.85 | 1.13 | 0.542 | 0.41 | 1.41 | 0.962 | 2.36 | 0.592
8 | CN=C1C=CC(=C(c2ccc(N(C)C)cc2)c2ccc(N(C)C)cc2)C=C1 | 0.682 | 1.94 | 2.53 | 0.673 | 0.551 | 1.04 | 3.43 | 1.02 | 0.797 | 6.07 | 0.0582 | 0.324 | 0.448 | 0.165 | 0.206 | 0.201 | 0.312 | 0.224 | 0.249 | 0.367
9 | c1ccc(OCCC[P+](c2ccccc2)(c2ccccc2)c2ccccc2)cc1 | 14 | 17.8 | 27.9 | 10.9 | 11.4 | 6.75 | > 100 | 10.9 | 5.71 | > 100 | 1.63 | 2.27 | 10.1 | 0.55 | 0.646 | 2.18 | 4.09 | 1.81 | 0.381 | 22.2
10 | C=C1C(O)C2CC(C)(CO)C(=O)C2=C(CC(C)C)C12CC2 (centres undefined) | > 100 | > 100 | > 100 | > 100 | > 100 | > 100 | > 100 | > 100 | > 100 | > 100 | 77 | > 100 | 69.6 | 50.6 | 40.8 | 57.9 | > 100 | > 100 | 52.1 | 82.3
11 | CCOC(=O)c1cc(-c2ccc(-c3cc(C(=O)OCC)c(C#N)c(N)c3C#N)cc2)c(C#N)c(N)c1C#N | > 100 | > 100 | > 100 | > 100 | > 100 | > 100 | > 100 | > 100 | > 100 | > 100 | – | – | – | – | – | – | – | – | – | –
12 | O=C(Nc1ccccc1I(=O)=O)C1CCCCC1 | > 100 | > 100 | > 100 | > 100 | > 100 | > 100 | > 100 | > 100 | > 100 | > 100 | > 100 | > 100 | > 100 | > 100 | > 100 | > 100 | > 100 | > 100 | > 100 | > 100
13 | COC(=O)c1c(-c2cccs2)oc(-c2cccs2)c1C(=O)OC | > 100 | > 100 | 69.3 | > 100 | > 100 | > 63.1 | > 100 | 97.7 | > 95.3 | > 100 | 59.6 | > 100 | 26.7 | 32.5 | > 100 | 31.9 | > 95 | 29.6 | 40.3 | 27.5
14 | COc1ccc(-c2cncn2-c2cc(OC)c(OC)c(OC)c2)cc1 | > 46.4 | > 100 | 1.85 | 1.53 | 6.59 | > 80.9 | > 100 | > 43.7 | > 86.9 | > 91.9 | 0.412 | 0.349 | 0.051 | 0.0224 | 2.09 | 0.857 | 0.318 | 0.659 | 6.73 | 0.17
15 | CS(=O)(=O)c1ccc(Nc2nc(N[C@H]3CCCC[C@H]3N)nc3cc[nH]c(=O)c23)cc1 | 21.1 | 28.3 | 36.3 | 11.9 | 6.03 | 6.7 | > 100 | 6.01 | 15.9 | > 100 | 0.664 | 0.714 | 11.7 | 0.491 | 0.68 | 0.857 | 2.52 | 1.58 | 2.78 | 26.7
16 | C#CC1=CC(=O)C(OC)=CC1=O | > 100 | > 100 | 42.6 | > 100 | 36.4 | 40 | > 100 | 60 | > 100 | 32.3 | – | – | – | – | – | – | – | – | – | –
17 | COc1ccc(-c2nc(-c3nc4ccc(C)cc4[nH]3)cc3c2[nH]c2ccccc23)cc1 | > 100 | > 100 | > 100 | 14 | 27.8 | 17.1 | > 100 | > 100 | > 100 | > 100 | 3.42 | 7.28 | 3.28 | 3.26 | 2.68 | 3.34 | 6.83 | 5.36 | 3.94 | 3.2
18 | COC1=CC(C2c3cc4c(cc3[C@@H](Nc3ccc(F)cc3)C3COC(=O)[C@H]23)OCO4)=CC(=O)C1=O (some centres undefined) | 13.7 | > 66.5 | 31.9 | 34.5 | > 23.6 | 35.6 | 98.2 | 9.97 | > 63.9 | 26.9 | – | – | – | – | – | – | – | – | – | –
19 | Cc1c(C#N)cccc1[C@@H](C)Nc1nnc(C)c2cnc(N3CCOCC3)cc12 | > 100 | > 100 | > 100 | > 100 | 92.1 | > 100 | > 100 | > 100 | 94.5 | > 100 | 29.8 | 25.3 | 0.7 | 6.61 | 10.7 | 27.5 | 42.2 | 15.3 | 26.4 | 31.4
20 | COc1cccc2cc(N(C)c3nc(C)nc4c3CCC4)ccc12 | 12.8 | 21.6 | 18.9 | 10.7 | 11.3 | 13.8 | 19.6 | 18 | 20.6 | 6.41 | < 0.01 | < 0.01 | < 0.01 | < 0.01 | < 0.01 | < 0.01 | < 0.01 | < 0.01 | 2.57 | < 0.01
21 | O=C(NCC(F)(F)F)Nc1cccc(-c2cnc3cc(-c4ccc(F)cc4)ccn23)c1 | 20.8 | > 100 | – | 31.7 | 11.1 | 11.2 | > 86.3 | 20.8 | 65.5 | > 74 | 0.622 | 2.26 | 1.05 | 0.347 | 0.314 | 0.727 | 8.33 | 1.65 | 14.2 | 0.614
22 | O=C(O)/C(Cc1ccnc2ccccc12)=N\O | > 100 | > 100 | > 100 | > 100 | > 100 | > 100 | > 100 | > 100 | > 100 | > 100 | – | – | – | – | – | – | – | – | – | –
23 | CC(=O)OC12C=C(C)C(C(C)C1)C1C(=O)N(CCN3CCCCC3)C(=O)C12 (centres undefined) | > 50 | > 50 | > 50 | > 50 | > 50 | > 50 | > 50 | > 50 | > 50 | > 50 | > 50 | > 50 | > 50 | > 50 | > 50 | > 50 | > 50 | > 50 | > 50 | > 50
24 | CCCOC(=O)c1c(C)n(C)c2scc[n+]12 | > 100 | > 100 | > 100 | > 100 | > 100 | > 100 | > 100 | > 100 | > 100 | > 100 | 34 | 36.3 | 39.9 | 44.5 | 64 | 89.7 | > 100 | 34.2 | 40.8 | > 100
25 | N#CC(C(=O)CCCC(=O)Nc1ccc(Cl)cc1Cl)c1ccccc1 (centres undefined) | > 100 | > 100 | > 100 | > 100 | > 100 | > 100 | > 100 | > 100 | > 100 | > 100 | – | – | – | – | – | – | – | – | – | –
26 | Cc1cccc(C(=O)O)c1C(=O)c1cccc2ccccc12 | > 100 | > 100 | > 100 | > 100 | > 100 | > 100 | > 100 | > 100 | > 100 | > 100 | – | – | – | – | – | – | – | – | – | –
27 | COc1ccc(C(=O)c2cc(C)c(OC)c(C)c2)c(OC)c1NC(C)=O | > 100 | > 100 | > 100 | > 100 | > 100 | > 100 | > 100 | > 100 | > 100 | > 100 | 0.353 | 0.265 | 0.0639 | 0.153 | 0.307 | 0.526 | 0.191 | 0.369 | > 100 | 0.452
28 | CC(C)c1cc(C(C)C)c(S(=O)(=O)N=[N+]=[N-])c(C(C)C)c1 | > 100 | > 100 | > 100 | > 100 | > 100 | > 100 | > 100 | > 100 | > 100 | > 100 | – | – | – | – | – | – | – | – | – | –
29 | COC(=O)Nc1nc2ccccc2[nH]1 | > 100 | > 100 | > 100 | > 100 | > 100 | > 100 | > 100 | > 56.2 | > 100 | > 100 | – | – | – | – | – | – | – | – | – | –
30 | O=C1/C(=C/c2ccc(F)cc2)CN(C(=O)CCN2CCC(=NO)CC2)C/C1=C\c1ccc(F)cc1 | 2.09 | 4.1 | 3.92 | 1.33 | > 100 | 0.922 | 4.11 | 4.47 | 7.05 | 2.6 | 0.63 | 1.53 | 1.57 | 0.537 | 0.197 | 0.409 | 1.83 | 1.92 | 2.4 | 0.691
